From ChEMBL document CHEMBL3217729, “Sangamides, a new class of cyclophilin-inhibiting host-targeted antivirals for treatment of HCV infection” (Medchemcomm, 2012) come the findings set out here.

Values after ≈ are worked out from the molar mass of the structure shown. Active and inactive are the calls of the source.

One data set has as its system PBMC. Kind of data set: Immunosuppressive activity in human PBMC isolated from two individuals assessed as inhibition of proliferation using [3H]thymidine by mixed lymphocyte reaction assay. In kind it is cell-based.
Data set [1] in a line: Half life in human liver microsomes at 1 uM by LC-MS/MS analysis. In kind it is ADME. A general note: Liver microsomes are vesicles of endoplasmic reticulum, rich in cytochrome P450 enzymes.
A further data set can be described thus: in vitro. The settings on record: mouse, liver microsomes.
Data set [2] is described as follows: Half life in human hepatocytes at 1 uM by LC-MS/MS analysis. In kind it is ADME, cell-based, Hepatocyte.
The test system of data set [3] is Hepatitis C virus. Kind of data set: Antiviral activity against Hepatitis C virus genotype 1a H77 infected in human Huh7 cells assessed as decrease in subgenomic RNA level after 72 hrs by RT-PCR analysis. In kind it is functional, cell-based, Hepacivirus hominis. The settings on record: genotype 1a H77, Huh-7, 72 h.
Data set [4] concerns Hepatitis C virus. Kind of data set: Antiviral activity against Hepatitis C virus genotype 1b Con1 infected in human Huh7 cells assessed as decrease in subgenomic RNA level after 72 hrs by RT-PCR analysis. In kind it is functional, cell-based, Hepacivirus hominis. The settings on record: genotype 1b Con1, Huh-7, 72 h.
The nature of data set [5]: Percentage bound in human plasma at 1 uM after 5 hrs by dialysis chamber method. In kind it is ADME, cell-free. The conditions noted are these: read-out: PPB (converted).
Data set [6] has as its system Hepatitis C virus. Kind of data set: Antiviral activity against Hepatitis C virus genotype 2a JFH-1 infected in human Huh7 cells assessed as decrease in subgenomic RNA level after 72 hrs by RT-PCR analysis. The settings on record: genotype 2a JFH-1, Huh-7, 72 h. In kind it is functional, cell-based, Hepacivirus hominis.
The nature of another data set: physchem. The conditions noted are these: n-octanol/potassium phosphate buffer, pH 7.4.
Data set [7] has as its system Hepatitis C virus. The data set is described as follows: Antiviral activity against Hepatitis C virus genotype 1b I389luc-ubi-neo/NS3-3'/5.1 subgenomic replicon infected in human Huh5-2 cells after 4 days by luciferase assay. In kind it is functional, cell-based, Hepacivirus hominis. The conditions noted are these: Huh-5-2, 96 h. (In general: Replicon systems follow genome replication, usually without infectious particles.)

Data set [8] can be described thus: Cytostatic activity against human Huh5-2 cells assessed as decrease in cell proliferation after 3 days by MTS method. In kind it is ADME, cell-based, Huh-5-2. For orientation: Formazan colour is commonly taken as a measure of viable cells.
The nature of data set [9]: Solubility of the compound in phosphate buffered saline at pH 7.4 after 4 hrs by LC-MS/MS analysis.
For data set [10], the target named is T1, Peptidyl-prolyl cis-trans isomerase A (Homo sapiens, UniProt P62937). Kind of data set: Inhibition of recombinant GST-tagged CypA (unknown origin)/HCV Con1 NS5A-His interaction after 16 hrs by ELISA.
Data set [11] addresses T1, Peptidyl-prolyl cis-trans isomerase A. Kind of data set: Inhibition of PPIase activity of recombinant CypA (unknown origin) assessed as chymotrypsin-mediated N-succinyl-Ala-Ala-Pro-Phe-p-nitroanilide hydrolysis after 1 hr by spectrophotometric analysis.
The nature of data set [12]: Selectivity index, ratio of CC50 for human Huh5-2 cells to EC50 for Hepatitis C virus genotype 1b I389luc-ubi-neo/NS3-3'/5.1 subgenomic replicon infected in human Huh5-2 cells. In kind it is toxicity, cell-based, Huh-5-2. The conditions noted are these: read-out: Ratio CC50/EC50.
Data set [13] in a line: Ratio of drug level in liver to blood in CD-1 mouse at 5 mg/kg, po administered as single dose measured for 24 hrs post-dose by LC-MS/MS analysis. More on the design: dose 5 mg/kg, route oral. In kind it is ADME, organism-based. The settings on record: liver and blood.
In data set [14] the target is ATP-dependent translocase ABCB1 (Homo sapiens, UniProt P08183). The data set is described as follows: Inhibition of MDR1 (unknown origin) expressed in MDCK1 cells assessed as reduction of loperamide substrate permeability up to 50 uM after 60 mins by LC-MS/MS analysis. The conditions noted are these: mdck1, 1 h. In kind it is ADME, cell-based.
In data set [15] the test system is Hepatitis C virus. Kind of data set: Antiviral activity against Hepatitis C virus genotype 1b Con1 infected in human Huh7 cells assessed as viral rebound by measuring replicon RNA content at 0.5 to 1 uM after drug removal by RT-qPCR analysis. In kind it is functional, cell-based. The conditions noted are these: Hepacivirus hominis, Huh-7.
Data set [16] concerns the target T2, ATP-binding cassette sub-family C member 2 (Homo sapiens, UniProt Q92887). Kind of data set: Inhibition of ATPase activity of MRP2 (unknown origin) expressed in membrane assessed as amount of phosphate released using probenecid as substrate up to 50 uM by molybdenum blue assay.
Data set [17] is described as follows: Drug level in CD-1 mouse blood at 5 mg/kg, po administered as single dose measured for 24 hrs post-dose by LC-MS/MS analysis. Details: dose 5 mg/kg, route oral. The settings on record: read-out: Drug uptake. In kind it is ADME, organism-based.
In another data set the test system is Liver. The data set is described as follows: Drug level in CD-1 mouse liver at 5 mg/kg, po administered as single dose measured per gm of tissue for 24 hrs post-dose by LC-MS/MS analysis. In kind it is ADME, organism-based. More on the design: dose 5 mg/kg, route oral. The settings on record: in vivo.
Data set [18] has as its target T2, ATP-binding cassette sub-family C member 2. Kind of data set: Inhibition of ATPase activity of MRP2 (unknown origin) expressed in membrane assessed as amount of phosphate released using probenecid as substrate at 14 uM by molybdenum blue assay.

T1 sequence (P62937 whole entry): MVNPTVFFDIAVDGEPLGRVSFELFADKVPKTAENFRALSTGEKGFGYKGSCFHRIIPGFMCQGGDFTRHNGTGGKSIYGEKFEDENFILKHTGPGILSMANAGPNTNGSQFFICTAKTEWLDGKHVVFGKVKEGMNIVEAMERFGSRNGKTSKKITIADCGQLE
T2 sequence (Q92887 whole entry): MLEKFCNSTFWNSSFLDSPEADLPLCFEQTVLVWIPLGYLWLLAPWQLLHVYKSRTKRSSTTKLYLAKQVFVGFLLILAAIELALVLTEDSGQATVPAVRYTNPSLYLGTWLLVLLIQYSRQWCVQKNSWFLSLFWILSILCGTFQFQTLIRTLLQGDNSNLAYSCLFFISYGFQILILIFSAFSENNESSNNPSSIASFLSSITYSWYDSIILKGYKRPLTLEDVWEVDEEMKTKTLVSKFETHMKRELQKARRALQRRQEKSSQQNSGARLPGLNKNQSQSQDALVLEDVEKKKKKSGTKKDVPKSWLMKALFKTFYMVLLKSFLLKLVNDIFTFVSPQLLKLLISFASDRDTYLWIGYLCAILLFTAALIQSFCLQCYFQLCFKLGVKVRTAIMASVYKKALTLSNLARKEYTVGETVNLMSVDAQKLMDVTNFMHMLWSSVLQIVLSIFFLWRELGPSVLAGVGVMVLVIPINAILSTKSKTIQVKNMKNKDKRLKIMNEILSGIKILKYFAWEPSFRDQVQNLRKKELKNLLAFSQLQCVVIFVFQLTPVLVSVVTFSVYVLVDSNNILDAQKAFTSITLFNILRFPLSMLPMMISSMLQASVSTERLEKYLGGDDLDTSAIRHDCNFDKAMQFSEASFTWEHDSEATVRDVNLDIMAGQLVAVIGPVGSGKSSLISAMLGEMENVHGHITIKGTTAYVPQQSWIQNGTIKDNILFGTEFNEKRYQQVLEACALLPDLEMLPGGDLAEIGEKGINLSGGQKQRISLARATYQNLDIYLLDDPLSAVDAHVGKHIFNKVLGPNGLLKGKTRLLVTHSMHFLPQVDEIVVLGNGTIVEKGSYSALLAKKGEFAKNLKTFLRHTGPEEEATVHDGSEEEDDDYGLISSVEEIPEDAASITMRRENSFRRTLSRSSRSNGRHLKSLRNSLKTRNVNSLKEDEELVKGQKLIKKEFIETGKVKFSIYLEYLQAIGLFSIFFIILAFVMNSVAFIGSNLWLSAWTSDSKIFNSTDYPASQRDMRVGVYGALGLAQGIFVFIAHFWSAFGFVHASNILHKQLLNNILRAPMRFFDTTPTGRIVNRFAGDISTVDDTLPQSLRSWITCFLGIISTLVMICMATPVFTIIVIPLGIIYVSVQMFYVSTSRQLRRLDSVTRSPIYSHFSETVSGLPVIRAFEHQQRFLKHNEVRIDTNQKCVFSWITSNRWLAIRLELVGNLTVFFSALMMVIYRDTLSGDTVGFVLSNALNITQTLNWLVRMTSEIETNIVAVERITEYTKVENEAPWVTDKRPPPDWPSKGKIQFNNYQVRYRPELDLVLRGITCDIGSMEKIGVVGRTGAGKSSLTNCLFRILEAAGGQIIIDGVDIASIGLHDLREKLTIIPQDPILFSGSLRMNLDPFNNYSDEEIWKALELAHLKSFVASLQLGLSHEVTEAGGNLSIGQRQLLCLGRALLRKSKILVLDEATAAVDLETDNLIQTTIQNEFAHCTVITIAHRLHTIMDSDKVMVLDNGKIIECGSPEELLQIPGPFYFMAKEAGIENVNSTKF
Sequence of ATP-dependent translocase ABCB1 (P08183 whole entry): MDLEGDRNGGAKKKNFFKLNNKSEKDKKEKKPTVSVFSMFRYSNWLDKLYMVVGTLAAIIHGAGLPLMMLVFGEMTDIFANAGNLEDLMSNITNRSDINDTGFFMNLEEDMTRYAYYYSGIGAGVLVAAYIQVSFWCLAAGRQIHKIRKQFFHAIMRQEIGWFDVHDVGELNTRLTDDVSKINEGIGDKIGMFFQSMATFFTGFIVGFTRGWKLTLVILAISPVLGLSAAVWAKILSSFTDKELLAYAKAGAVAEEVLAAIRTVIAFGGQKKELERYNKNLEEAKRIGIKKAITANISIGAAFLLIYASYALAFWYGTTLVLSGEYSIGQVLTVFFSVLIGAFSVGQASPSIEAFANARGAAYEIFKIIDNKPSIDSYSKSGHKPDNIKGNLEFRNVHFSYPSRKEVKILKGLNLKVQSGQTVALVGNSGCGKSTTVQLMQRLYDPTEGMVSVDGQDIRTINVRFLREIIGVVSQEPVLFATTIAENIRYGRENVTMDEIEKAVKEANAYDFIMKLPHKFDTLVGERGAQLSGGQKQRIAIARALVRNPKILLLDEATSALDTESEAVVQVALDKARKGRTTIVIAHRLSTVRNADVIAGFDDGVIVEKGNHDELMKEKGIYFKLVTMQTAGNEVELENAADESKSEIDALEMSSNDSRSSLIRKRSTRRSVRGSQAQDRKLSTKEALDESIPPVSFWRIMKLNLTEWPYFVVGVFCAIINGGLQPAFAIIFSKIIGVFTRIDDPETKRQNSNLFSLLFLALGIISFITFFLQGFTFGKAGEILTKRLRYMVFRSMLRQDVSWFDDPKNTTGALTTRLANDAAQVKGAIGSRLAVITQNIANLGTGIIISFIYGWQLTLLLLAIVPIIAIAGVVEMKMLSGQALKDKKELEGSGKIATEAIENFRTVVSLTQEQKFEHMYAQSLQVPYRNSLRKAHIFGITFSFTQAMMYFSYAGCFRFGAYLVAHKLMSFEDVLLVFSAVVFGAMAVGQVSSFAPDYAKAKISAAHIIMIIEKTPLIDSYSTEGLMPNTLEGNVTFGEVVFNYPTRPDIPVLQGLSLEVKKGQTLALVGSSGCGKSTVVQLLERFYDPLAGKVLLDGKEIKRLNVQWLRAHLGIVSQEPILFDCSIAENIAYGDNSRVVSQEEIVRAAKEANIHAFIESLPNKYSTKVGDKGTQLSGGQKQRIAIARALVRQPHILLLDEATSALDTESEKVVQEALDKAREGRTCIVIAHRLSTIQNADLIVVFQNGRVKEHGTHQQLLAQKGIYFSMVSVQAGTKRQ
Description for in vitro: Half life in mouse liver microsomes at 1 uM by LC-MS/MS analysis

As to `CC[C@H]1C[C@H](C)[C@@]2(NC1=O)O[C@@H](C[C@H](O)[C@@H](C)CC/C=C/C=C(\C)[C@@H]1C/C=C/C=C/[C@H](O)[C@H](C)[C@@H](O)[C@@H](CCC(C)=O)C(=O)N[C@@H](C(C)C)C(=O)N[C@@H](Cc3cccc(O)c3)C(=O)N3CCCC(N3)C(=O)O1)[C@H](C)[C@H](O)[C@@H]2C` (stereo partly specified), in the data set with PBMC, the IC50 (commonly the concentration at which inhibition is half-maximal) is 0.215 µM. Besides, the half-life (commonly the time needed for the level to fall by half in the phase considered) at 1 µM amounted to 7.9 min in [1], 4 min in “in vitro” and 145 min in data set [2]. Besides, the EC50 (commonly the midpoint of the concentration-response curve) is 0.301 µM in the data set on Hepatitis C virus [3], 0.222 µM with Hepatitis C virus [4], 0.247 µM in the data set with Hepatitis C virus [6] and 0.318 µM in the data set with Hepatitis C virus [7]. Also, in [5], the fraction unbound at 5 h, 1 µM was less than 0.01. Moreover, the logD (commonly lipophilicity at a set pH, counting ionised and neutral species) at 1 h in “physchem” was greater than 3.7. Moreover, in the data set with Hepatitis C virus [7], the EC90 (as a rule, the concentration at which the effect reaches the 90% level) turned out to be 5.5 µM. Besides, in [8], the CC50 (in general, the concentration at which the toxic effect on the cells reaches its halfway point) at 72 h turned out to be 9.1 µM. Besides, the concentration in solution in data set [9] (solubility at 4 h) was 45 µM (≈ 49.1 µg/mL).
Consider `CON(C)C(=O)/C=C/C=C(\C)[C@@H]1C/C=C/C=C/[C@H](O)[C@H](C)[C@@H](O)[C@@H](CCC(C)=O)C(=O)N[C@@H](C(C)C)C(=O)N[C@@H](Cc2cccc(O)c2)C(=O)N2CCCC(N2)C(=O)O1` (stereo partly specified), for which the IC50 with PBMC was 1.06 µM; in data set [10], 0.2 µM; in [11], 0.0011 µM. Also, the half-life at 1 µM in data set [1] was 26.5 min; in the data set “in vitro”, 17.5 min; in data set [2] it was greater than 240 min. The EC50 with Hepatitis C virus [3] is 0.156 µM; in the data set with Hepatitis C virus [4] it was 0.128 µM; in the data set with Hepatitis C virus [6] it was 0.247 µM; in the data set on Hepatitis C virus [7], 0.162 µM. In addition, the fraction unbound at 5 h, 1 µM in [5] is 0.73. For the same compound, the selectivity ratio in [12] is greater than 617. Further, the logD at 1 h in “physchem” was 2.3. It took 0.92 µM to reach the 90% level in the data set on Hepatitis C virus [7] (EC90). Further, the CC50 at 72 h in data set [8] is greater than 100 µM. Further, the solubility (in general, how much of the substance goes into solution per volume) at 4 h in data set [9] is greater than 100 µM.
As to `CC(=O)CC[C@H]1C(=O)N[C@@H](C(C)C)C(=O)N[C@@H](Cc2cccc(O)c2)C(=O)N2CCCC(N2)C(=O)O[C@H](/C(C)=C/C=C/C(=O)Nc2ccccn2)C/C=C/C=C/[C@H](O)[C@H](C)[C@H]1O` (stereo in doubt), the half-life at 1 µM in data set [1] was determined as 4.4 min; in the data set “in vitro”, 8.8 min; in data set [2], 95 min. Further, the values for the IC50 in data set [10] and in data set [11] were 0.39 µM and 0.0041 µM, respectively. Further, the selectivity ratio in [12] was 240. Further, the midpoint of the response with Hepatitis C virus [7], the EC50, lay at 0.167 µM. For the same compound, in the data set with Hepatitis C virus [7], the EC90 was found to be 0.74 µM. Besides, the CC50 at 72 h in [8] was 40 µM. Besides, in data set [9], the concentration in solution (solubility at 4 h) was 61 µM (≈ 52.3 µg/mL).
With `CC(=O)CC[C@H]1C(=O)N[C@@H](C(C)C)C(=O)N[C@@H](Cc2cccc(O)c2)C(=O)N2CCCC(N2)C(=O)O[C@H](/C(C)=C/C=C/C(=O)N2CCCCO2)C/C=C/C=C/[C@H](O)[C@H](C)[C@H]1O` (stereo partly specified), the Kp – broadly, tissue or fluid exposure divided by exposure in the circulation – at 24 h in [13] was determined as 3. Moreover, the IC50 came out at 1.45 µM with PBMC, 0.36 µM in [10] and 0.0027 µM in data set [11]. Moreover, the figures for the half-life at 1 µM (in data set [1]; in the data set “in vitro”; in data set [2]) were 10.6 min, 5.8 min and 220 min, respectively. Further, the “inhibition (INH)” value in data set [14] and in data set [16] was “Not Active” each time. The result in the data set on Hepatitis C virus [15] was Active. Further, the EC50 in the data set with Hepatitis C virus [3] is 0.063 µM; in the data set on Hepatitis C virus [4] it was 0.058 µM; in the data set with Hepatitis C virus [6] it was 0.089 µM; with Hepatitis C virus [7], 0.125 µM. Besides, the concentration at 24 h in data set [17] stood at 20 ng/mL. In addition, the selectivity ratio in data set [12] was greater than 800. Besides, the Drug uptake in the data set with Liver stood at 20 ng. The logD at 1 h in the data set “physchem” came to 2.6. In addition, in the data set on Hepatitis C virus [7], the EC90 worked out at 0.69 µM. Also, the CC50 at 72 h in data set [8] is greater than 100 µM. The compound further showed a solubility at 4 h in [9] greater than 100 µM.
Regarding `CCc1oc2ccccc2c1C(=O)c1cc(Br)c(O)c(Br)c1` [BENZBROMARONE], the “inhibition (INH)” value in [18] is recorded as “Active”.
